In patent publication US8133847B2, “Pyrido[2,3-B]pyrazine derivatives useful as herbicidal compounds” (Syngenta Limited, priority 2006, dated 2012):

Experiments:
Experiment in all cases: Example B2 herbicidal action, post-emergence, pots in glasshouse
Assay type in all cases: in vivo
[1] = tested on: Amaranthus retroflexus (AMARE); conditions: Application post-emergence, evaluated after 13 days (100=total damage to plant; 0=no damage to plant)
Experimental: (§1) Seeds of a variety of test species were sown in standard soil in pots. After 8 days cultivation (post-emergence) under controlled conditions in a glasshouse (at 24/16° C., day/night; 14 hours light; 65% humidity), the plants were sprayed with an aqueous spray solution derived from the formulation of the technical active ingredient in acetone/water (50:50) solution containing 0.5% Tween 20 (polyoxyethylene sorbitan monolaurate, CAS RN 9005-64-5). The test plants were then grown in a glasshouse under controlled conditions in a glasshouse (at 24/16° C., day/night; 14 hours light; 65% humidity) and watered twice daily. After 13 days, the test was evaluated (100=total damage to plant; 0=no damage to plant).

[2] = tested on: Echinochloa crusgalli (ECHCG); conditions: Application post-emergence, evaluated after 13 days (100=total damage to plant; 0=no damage to plant)
Experimental: as §1

[3] = tested on: Ipomea hederaceae (IPOHE); conditions: Application post-emergence, evaluated after 13 days (100=total damage to plant; 0=no damage to plant)
Experimental: as §1

Setaria faberi (SETFA) = conditions: Application post-emergence, evaluated after 13 days (100=total damage to plant; 0=no damage to plant)
Experimental: as §1

Solanum nigrum (SOLNI) = conditions: Application post-emergence, evaluated after 13 days
Experimental: as §1

In the case of `CCn1c(=O)c(-c2ccc(C(F)(F)F)cc2Br)c(OC(=O)C(C)(C)C)c2nccnc21` [Compound C147], the “damage to plant, Amaranthus retroflexus (AMARE)” value (“damage to plant … (AMARE)” below) [1] is reported as 2, the “damage to plant, Echinochloa crusgalli (ECHCG)” value (“damage to plant … (ECHCG)” for short) [2] is reported as 0 and the “damage to plant, Ipomea hederaceae (IPOHE)” value (“damage to plant … (IPOHE)” below) [3] is reported as 2. For the same molecule, the “damage to plant, Setaria faberi (SETFA)” value (Setaria faberi (SETFA)) was 0 and the “damage to plant, Solanum nigrum (SOLNI)” value (Solanum nigrum (SOLNI)) was 4.

`CC(C)C(=O)Oc1c(-c2cc(F)c(Cl)cc2Cl)c(=O)n(C)c2nccnc12` [Compound C148] was tested, and the “damage to plant … (AMARE)” value [1] was 9, the “damage to plant … (ECHCG)” value [2] was 6 and the “damage to plant … (IPOHE)” value [3] was 7. The “damage to plant, Setaria faberi (SETFA)” value (Setaria faberi (SETFA)) was 4 and the “damage to plant, Solanum nigrum (SOLNI)” value (Solanum nigrum (SOLNI)) was 6.

With `Cn1c(=O)c(-c2cc(F)c(Cl)cc2Cl)c(OC(=O)C(C)(C)C)c2nccnc21` [Compound C149] the “damage to plant … (AMARE)” value [1] was 9, the “damage to plant … (ECHCG)” value [2] was 3 and the “damage to plant … (IPOHE)” value [3] was 5. The “damage to plant, Setaria faberi (SETFA)” value (Setaria faberi (SETFA)) was 3 and the “damage to plant, Solanum nigrum (SOLNI)” value (Solanum nigrum (SOLNI)) was 7.

In the case of `CCn1c(=O)c(-c2cc(F)ccc2Cl)c(OC(=O)C(C)C)c2nccnc21` [Compound C150], the “damage to plant … (AMARE)” value [1] is reported as 10, the “damage to plant … (ECHCG)” value [2] is reported as 3 and the “damage to plant … (IPOHE)” value [3] is reported as 9. For the same molecule, the “damage to plant, Setaria faberi (SETFA)” value (Setaria faberi (SETFA)) was 6 and the “damage to plant, Solanum nigrum (SOLNI)” value (Solanum nigrum (SOLNI)) was 10.

For `CCn1c(=O)c(-c2cc(F)ccc2Cl)c(OC(=O)C(C)(C)C)c2nccnc21` [Compound C151], the “damage to plant … (AMARE)” value [1] was 7, the “damage to plant … (ECHCG)” value [2] was 0 and the “damage to plant … (IPOHE)” value [3] was 4. The “damage to plant, Setaria faberi (SETFA)” value (Setaria faberi (SETFA)) was 0 and the “damage to plant, Solanum nigrum (SOLNI)” value (Solanum nigrum (SOLNI)) was 6.

With `CCn1c(=O)c(-c2cc(F)c(Cl)cc2Cl)c(OC(=O)C(C)C)c2nccnc21` [Compound C152] the “damage to plant … (AMARE)” value [1] was 10, the “damage to plant … (ECHCG)” value [2] was 4 and the “damage to plant … (IPOHE)” value [3] was 6. The “damage to plant, Setaria faberi (SETFA)” value (Setaria faberi (SETFA)) was 2 and the “damage to plant, Solanum nigrum (SOLNI)” value (Solanum nigrum (SOLNI)) was 9.

For `CCn1c(=O)c(-c2cc(F)c(Cl)cc2Cl)c(OC(=O)C(C)(C)C)c2nccnc21` [Compound C153], the “damage to plant … (AMARE)” value [1] was 9, the “damage to plant … (ECHCG)” value [2] was 1 and the “damage to plant … (IPOHE)” value [3] was 5. For the same molecule, the “damage to plant, Setaria faberi (SETFA)” value (Setaria faberi (SETFA)) was 1 and the “damage to plant, Solanum nigrum (SOLNI)” value (Solanum nigrum (SOLNI)) was 8.

In the case of `CCn1c(=O)c(-c2c(F)ccc(Br)c2Cl)c(OC(=O)C(C)C)c2nccnc21` [Compound C154], the “damage to plant … (AMARE)” value [1] is reported as 10, the “damage to plant … (ECHCG)” value [2] is reported as 3 and the “damage to plant … (IPOHE)” value [3] is reported as 9. For the same molecule, the “damage to plant, Setaria faberi (SETFA)” value (Setaria faberi (SETFA)) was 0 and the “damage to plant, Solanum nigrum (SOLNI)” value (Solanum nigrum (SOLNI)) was 10.

With `CCn1c(=O)c(-c2c(F)ccc(Br)c2Cl)c(OC(=O)C(C)(C)C)c2nccnc21` [Compound C155] the “damage to plant … (AMARE)” value [1] was 10, the “damage to plant … (ECHCG)” value [2] was 3 and the “damage to plant … (IPOHE)” value [3] was 9. For the same molecule, the “damage to plant, Setaria faberi (SETFA)” value (Setaria faberi (SETFA)) was 0 and the “damage to plant, Solanum nigrum (SOLNI)” value (Solanum nigrum (SOLNI)) was 10.

For `COc1ccc(OC(F)(F)F)cc1-c1c(OC(=O)C(C)C)c2nccnc2n(C)c1=O` [Compound C159], the “damage to plant … (AMARE)” value [1] was 9, the “damage to plant … (ECHCG)” value [2] was 9 and the “damage to plant … (IPOHE)” value [3] was 2. The “damage to plant, Setaria faberi (SETFA)” value (Setaria faberi (SETFA)) was 7 and the “damage to plant, Solanum nigrum (SOLNI)” value (Solanum nigrum (SOLNI)) was 8.

For `CCn1c(=O)c(-c2cc(OC(F)(F)F)ccc2OC)c(OC(=O)C(C)C)c2nccnc21` [Compound C160], the “damage to plant … (AMARE)” value [1] was 10, the “damage to plant … (ECHCG)” value [2] was 8 and the “damage to plant … (IPOHE)” value [3] was 7. The “damage to plant, Setaria faberi (SETFA)” value (Setaria faberi (SETFA)) was 6 and the “damage to plant, Solanum nigrum (SOLNI)” value (Solanum nigrum (SOLNI)) was 9.

In the case of `Cn1c(=O)c(-c2cc(F)c(F)cc2Cl)c(OC(=O)C(C)(C)C)c2nccnc21` [Compound C162], the “damage to plant … (AMARE)” value [1] is reported as 9, the “damage to plant … (ECHCG)” value [2] is reported as 8 and the “damage to plant … (IPOHE)” value [3] is reported as 7. The “damage to plant, Setaria faberi (SETFA)” value (Setaria faberi (SETFA)) was 7 and the “damage to plant, Solanum nigrum (SOLNI)” value (Solanum nigrum (SOLNI)) was 10.

In the case of `Cn1c(=O)c(-c2c(F)ccc(Cl)c2Cl)c(OC(=O)C(C)(C)C)c2nccnc21` [Compound C163], the “damage to plant … (AMARE)” value [1] is reported as 6, the “damage to plant … (ECHCG)” value [2] is reported as 1 and the “damage to plant … (IPOHE)” value [3] is reported as 9. The “damage to plant, Setaria faberi (SETFA)” value (Setaria faberi (SETFA)) was 0 and the “damage to plant, Solanum nigrum (SOLNI)” value (Solanum nigrum (SOLNI)) was 9.

In the case of `CC(C)C(=O)Oc1c(-c2ccccc2OC(F)F)c(=O)n(C)c2nccnc12` [Compound C164], the “damage to plant … (AMARE)” value [1] is reported as 9, the “damage to plant … (ECHCG)” value [2] is reported as 3 and the “damage to plant … (IPOHE)” value [3] is reported as 8. For the same molecule, the “damage to plant, Setaria faberi (SETFA)” value (Setaria faberi (SETFA)) was 4 and the “damage to plant, Solanum nigrum (SOLNI)” value (Solanum nigrum (SOLNI)) was 8.

For `CCn1c(=O)c(-c2ccccc2OC(F)F)c(OC(=O)C(C)C)c2nccnc21` [Compound C165], the “damage to plant … (AMARE)” value [1] was 9, the “damage to plant … (ECHCG)” value [2] was 1 and the “damage to plant … (IPOHE)” value [3] was 7. The “damage to plant, Setaria faberi (SETFA)” value (Setaria faberi (SETFA)) was 2 and the “damage to plant, Solanum nigrum (SOLNI)” value (Solanum nigrum (SOLNI)) was 10.
